One assay deals with Streptococcus mutans. As to the kind of experiment: Killing of Streptococcus mutans by lactoferrin variants and peptide. Type of assay: cell-based. The following applies: synthetic peptide. From the text:
Caries is the single most common chronic childhood disease, five times more common than asthma. Over 70% of children […] have cavities. Over 108 million Americans lack dental health insurance so that treatment of this infection is lacking. S. mutans is considered one of the microbes most associated with dental decay.
Others have shown that lactoferrin peptides have antimicrobial activity, but no one to date has shown that the antibacterial activity derived from this peptide is useful against organisms in the oral cavity. We have also determined that the peptide will have limited usefulness in the oral cavity unless it is linked to something that will allow the peptide to bind to a surface in the oral cavity. A fusion peptide comprising lactoferrin and statherin was previously developed, wherein the lactoferrin portion provided antimicrobial activity while the statherin portion enabled the fusion peptide to adhere to the tooth surface. […]
Lactoferrin (Lf or LF) is a multifunctional protein that is found in mammary secretion, tears and saliva and in the gastrointestinal tract. […] Further we then determined that pure lactoferrin would have limited usefulness in the oral cavity unless it was linked to something that would allow it to bind to the oral cavity.

A further assay deals with oral bacteria. The following applies: bacteria grown in a broth media; cited from earlier work.
For a further assay, the system named is bacteria. The conditions noted are these: cited from earlier work.
A further assay has as its system Candida. As to the kind of experiment: Two hour cell killing assay with supernatants from salivary-coated HAP or BECs. The following applies: sHAP incubated with peptide, washed, 1 hour release; 2 hour cell killing assay. It is filed as cell-based. How it is done: The procedures depicted in FIG. 5 were carried out with two LF fusion peptides (ST-LF and PAK-LF). Salivary-coated HAP was incubated with ST-LF peptide for 30 minutes and then washed with PBS and the supernatant tested. Fresh PBS was added, and the salivary-coated HAP was further incubated for 1 hour. The salivary-coated HAP was again rinsed and the supernatant solution was then tested for anti-candidal activity. The results are depicted in FIG. 6.

The conditions of assay [1]: previously demonstrated; cited from earlier work.

The values below come from US9408889B2, “Fusion peptide designed to reduce plaque bacteria and yeast in the oral cavity” (RUTGERS, THE STATE UNIVERSITY OF NEW JERSEY, priority 2011, dated 2016).

With “LF: FQWQRNMRKVR, lactoferrin peptide, lys form (listed as Homo sapiens)”, the “killing of Streptococcus mutans” value in the assay on Streptococcus mutans is reported as “kills Streptococcus mutans”.

For the substance Penicillin, the “effective concentration against oral bacteria” value with oral bacteria was 1 µg/mL. For the same substance, the “adherence of bacteria to drug-treated, washed SHA” value with bacteria is on record as “no effect”.

For “ST-LF: DDDEEKFQWQRNMRKVR, statherin-lactoferrin fusion peptide of PCT/US08/51165 (ST-LF fusion peptide)”, the “anti-candidal activity of supernatant from salivary-coated HAP” value in the assay with Candida is “no inhibition of Candida”. The “binding to tooth enamel surfaces” value in assay [1] is reported as “bind to tooth enamel surfaces”.
